Patent US20240148679A1, “METHODS AND COMPOSITIONS RELATED TO TREATMENT AND PREVENTION OF CANCER BY INHIBITION OF DGAT1 AND DGAT2” (Ohio State Innovation Foundation, priority 2019, published 2024)

Assays:
GBM cells (U251) = experiment: Seahorse analysis of OCR and ECAR; format: cell-based, human; conditions: 20 μg/ml for 24 hours; for oxygen consumption rate (OCR): vs control cells
Protocol: (A, B) Transmission electron microscopy (TEM) analysis of the mitochondrial morphology in GBM cells (U251) treated with the DGAT1 inhibitor A-922500 (20 μg/ml) or DGAT2 inhibitor PF-06424439 (20 μg/ml) for 24 hr and shown in a or infected with shRNA-expressing lentivirus against DGAT1 for 48 hr and shown in b. Scale bar, 500 nm. Mitochondria are indicated by red arrows. Mitochondria length and loss of cristae (%) were quantified by ImageJ over 100 mitochondria in each group (mean±SEM). Statistical significance was determined by one-way ANOVA. * P<0.0001. (C, D) Representative fluorescence images of LDs (green) and mitochondria (red) in U251 cells treated with DGAT1 or DGAT2 inhibitor and shown in c or shRNA in (D) as in panels (A, B). LDs were stained with BODIPY 493/503 (green) and mitochondria were stained with MitoTracker Red. Nuclei were stained with Hoechst 33342 (blue). Scale bar, m. The percentage of cells with tubular or fragmented mitochondria was quantified by ImageJ in more than 100 cells (mean±SEM). Statistical significance was determined by one-way ANOVA. * P<0.001. (E, F) Analysis of mitochondrial activity by measuring oxygen consumption rate (OCR) in U251 cells treated with DGAT1/DGAT2 inhibitors or shRNA as in panels (A, B). Lower panels show the quantification of relative basal and maximal OCR change (details please see Methods). Data represent the mean±SD from 3 independent experiments. Basal OCR was determined as OCR before oligomycin subtract OCR after rotenone addition, and maximal OCR was determined as OCR after FCCP subtract OCR after rotenone addition. Statistical significance was determined by one-way ANOVA. * P<0.0001. (G, H) Representative fluorescence images of reactive oxygen species (ROS) production and mitochondria (green) in U251 cells treated with DGAT1/DGAT2 inhibitors or shRNA as in panels (A, B). ROS were detected with CellROX Deep Red, and mitochondria were stained with MitoTracker Green. Nuclei were stained with Hoechst 33342 (blue). Scale bar, 10 m. ROS levels were quantified by ImageJ in more than 100 cells (mean±SD). Statistical significance was determined by one-way ANOVA. * P<0.0001. (I, J) Representative fluorescence images of ROS levels (red) detected by CellROX Deep Red in U251 cells treated with the DGAT1 inhibitor or shRNA as in panels a and b in the presence or absence of N-acetyl-cysteine (NAC, 1 mM). Nuclei were stained with Hoechst 33342 (blue). Scale bar, 10 m. ROS levels were quantified by ImageJ in more than 100 cells (mean±SD) (right upper panels). Live and dead cells were counted by trypan blue staining after treatment for 3 days (mean±SD, n=3) (right bottom panels). Statistical significance was determined by one-way ANOVA. * P<0.0001. […]

liver cancer cells = experiment: Liver cancer cell death with DGAT1 and DGAT2 inhibitors alone or in combination; format: cell-based, human
Protocol: MHCC97L 6×10^4 12 well plate, treated at 24 hours with 1% FBS DMEM with DGAT1 and DGAT2 inhibitors. Picture taken on day 4.
HEPG2 6×10^4 12 well plate, treated at 24 hours with 1% FBS DMEM with DGAT1 and DGAT2 inhibitors. Picture taken on day 4.
HeG2 8×10^4 12 well plate, treated at 24 hours with 1% FBS DMEM with DGAT1 and DGAT2 inhibitors. Picture taken on day 4.
Huh7 4×10^4 12-well plate, treated at 24 hours with 1% FBS DMEM with DGAT1 and DGAT2 inhibitors. Picture taken on day 4.
Hep3B 6×10^4 12-well plate, treated at 24 hours with 1% FBS DMEM with DGAT1 and DGAT2 inhibitors. Picture taken on day 4.
Huh7 6×10^4 12-well plate, treated at 24 hours with 1% FBS DMEM with DGAT1 and DGAT2 inhibitors. Picture taken on day 4.

[1] = DGAT1 inhibitor in combination with DGAT2 inhibitor

Structure (SMILES): O=C(Nc1ccccc1)Nc1ccc(-c2ccc(C(=O)[C@@H]3CCC[C@H]3C(=O)O)cc2)cc1 [A-922500]
- extracellular acidification rate (ECAR) (GBM cells (U251)): did not affect
- oxygen consumption rate (OCR) (GBM cells (U251)): markedly reduced
- liver cancer cell death (liver cancer cells; [1]): effective to kill liver cancer cells
- liver cancer cell death (liver cancer cells; each single inhibitor): no ability to induce liver cancer cell death

Structure (SMILES): CS(=O)(=O)O.O=C([C@@H]1CCCN(c2ccc3[nH]c(C4(n5cc(Cl)cn5)CC4)nc3n2)C1)N1CCCC1 [PF-06424439]
- extracellular acidification rate (ECAR) (GBM cells (U251)): did not affect
- oxygen consumption rate (OCR) (GBM cells (U251)): no reduction was observed
- liver cancer cell death (liver cancer cells; [1]): effective to kill liver cancer cells
- liver cancer cell death (liver cancer cells; each single inhibitor): no ability to induce liver cancer cell death
